System: mouse cortical cultures
Assay: RNA-seq differential expression (DESeq) against matched vehicle
Type: cell-based
Set-up: key to MeanFenamidone Bcl11b / MeanFenamidone Slc12a4 / MeanFenamidone Abca1 / MeanFenamidone Hmox1 / MeanFenamidone Il1rap / MeanFenamidone Cyba / MeanFenamidone Narf / MeanFenamidone Bnip3 / MeanFenamidone Amotl2 / MeanFenamidone Gad2 / MeanFenamidone Vsnl1 / MeanFenamidone Fam178a: DESeq mean of counts over RefSeq exons
Protocol: Figure 4 Cluster 2 chemicals alter expression of a common set of genes. […] RNA-seq was performed in quadruplicate after treating cortical cultures with fenamidone (10 μM) or pyraclostrobin (0.1 μM) for 24 h (n=3 biological replicates) and compared with matched vehicle controls using DESeq to detect differentially expressed genes, listed in Supplementary Data 4.
Cultures were treated with the non-cytotoxic dose of each chemical, by exchanging half of the original medium with chemicals at 2 × concentration in prewarmed feeding medium, on DIV 7 for 24 h in 12-well plates at a density of 5 × 10^5 cells per well. RNA was isolated using RNeasy plus mini kit (Cat. #74134, Qiagen). […]. Samples were further assessed for quality using either an Agilent Bioanalyzer 2100 or TapeStation 2200 to obtain a RIN. RIN values exceeding 7 were used for sequencing. RNA samples were used to generate and barcode complementary DNA libraries using the TruSeq RNA Library Preparation Kit at the UNC High Throughput Sequencing Facility. Pools of 24 multiplexed samples were sequenced per lane on an Illumina HiSeq 2500 using 50-bp paired-end reads.
RNA-seq reads were filtered using TagDust and aligned to the reference mouse genome (mm9) with TopHat using default parameters. Reads aligning to ribosomal RNA genes were removed. Transcript abundance was estimated by computing Reads per kilobase per million mapped reads (RPKM) using RefSeq gene models aggregated by gene symbol. For differential expression analyses, raw counts over RefSeq exons were used, and then were compared across samples using DESeq[62].

SMILES: CSC1=N[C@@](C)(c2ccccc2)C(=O)N1Nc1ccccc1 [fenamidone]
- MeanFenamidone (gene Cad): 202.997
- log2FoldChange (gene Cad): 1.187
- MeanFenamidone (gene Cadps): 260.197
- log2FoldChange (gene Cadps): -1.6246
- MeanFenamidone Cald1 (gene Cald1, DESeq mean, 4 reps): 1843.23
- log2FoldChange Cald1 (gene Cald1, vs vehicle, 4 reps): 1.947
- MeanFenamidone (gene Calm2): 809.868
- log2FoldChange (gene Calm2): -1.097
- MeanFenamidone Camk2a (gene Camk2a, DESeq mean, 4 reps): 319.844
- log2FoldChange Camk2a (gene Camk2a, vs vehicle, 4 reps): -1.451
- MeanFenamidone (gene Camk2n1): 296.66
- log2FoldChange (gene Camk2n1): -1.023
- MeanFenamidone Camk4 (gene Camk4, DESeq mean, 4 reps): 490.278
- log2FoldChange Camk4 (gene Camk4, vs vehicle, 4 reps): -1.593
- MeanFenamidone Camta1 (gene Camta1, DESeq mean, 4 reps): 338.624
- log2FoldChange Camta1 (gene Camta1, vs vehicle, 4 reps): -1.578
- MeanFenamidone Caskin2 (gene Caskin2, DESeq mean, 4 reps): 130.097
- log2FoldChange Caskin2 (gene Caskin2, vs vehicle, 4 reps): 2.297
- MeanFenamidone Ccdc141 (gene Ccdc141, DESeq mean, 4 reps): 72.7622
- log2FoldChange Ccdc141 (gene Ccdc141, vs vehicle, 4 reps): 2.666
- MeanFenamidone Ccnd3 (gene Ccnd3, DESeq mean, 4 reps): 321.074
- log2FoldChange Ccnd3 (gene Ccnd3, vs vehicle, 4 reps): 1.783
- MeanFenamidone Ccng1 (gene Ccng1, DESeq mean, 4 reps): 4010.45
- log2FoldChange Ccng1 (gene Ccng1, vs vehicle, 4 reps): 1.5262
- MeanFenamidone Cd63 (gene Cd63, DESeq mean, 4 reps): 136.407
- log2FoldChange Cd63 (gene Cd63, vs vehicle, 4 reps): 2.342
- MeanFenamidone Cd68 (gene Cd68, DESeq mean, 4 reps): 127.152
- log2FoldChange Cd68 (gene Cd68, vs vehicle, 4 reps): 2.839
- MeanFenamidone Cd151 (gene Cd151, DESeq mean, 4 reps): 686.042
- log2FoldChange Cd151 (gene Cd151, vs vehicle, 4 reps): 1.998
- MeanFenamidone Cdc42ep1 (gene Cdc42ep1, DESeq mean, 4 reps): 242.014
- log2FoldChange Cdc42ep1 (gene Cdc42ep1, vs vehicle, 4 reps): 2.019
- MeanFenamidone Cdkl2 (gene Cdkl2, DESeq mean, 4 reps): 148.718
- log2FoldChange Cdkl2 (gene Cdkl2, vs vehicle, 4 reps): -1.498
- MeanFenamidone Cdkn1a (gene Cdkn1a, DESeq mean, 4 reps): 1626.53
- log2FoldChange Cdkn1a (gene Cdkn1a, vs vehicle, 4 reps): 1.6849
- MeanFenamidone (gene Cercam): 80.354
- log2FoldChange (gene Cercam): 1.731
- MeanFenamidone (gene Chga): 168.446
- log2FoldChange (gene Chga): -1.21
- MeanFenamidone (gene Chl1): 1683.83
- log2FoldChange (gene Chl1): -1.224
- MeanFenamidone (gene Ckb): 1311.75
- log2FoldChange (gene Ckb): 1.6
- MeanFenamidone (gene Clec7a): 31.0423
- log2FoldChange (gene Clec7a): 2.927
- MeanFenamidone Cln5 (gene Cln5, DESeq mean, 4 reps): 194.081
- log2FoldChange Cln5 (gene Cln5, vs vehicle, 4 reps): 2.017
- MeanFenamidone Cnr1 (gene Cnr1, DESeq mean, 4 reps): 426.988
- log2FoldChange Cnr1 (gene Cnr1, vs vehicle, 4 reps): -1.344
- MeanFenamidone Col4a5 (gene Col4a5, DESeq mean, 4 reps): 502.413
- log2FoldChange Col4a5 (gene Col4a5, vs vehicle, 4 reps): 2.312
- MeanFenamidone (gene Col4a6): 110.458
- log2FoldChange (gene Col4a6): 2.156
- MeanFenamidone Col12a1 (gene Col12a1, DESeq mean, 4 reps): 444.559
- log2FoldChange Col12a1 (gene Col12a1, vs vehicle, 4 reps): 2.385
- MeanFenamidone Cpeb1 (gene Cpeb1, DESeq mean, 4 reps): 116.043
- log2FoldChange Cpeb1 (gene Cpeb1, vs vehicle, 4 reps): 2.171
- MeanFenamidone Csf1 (gene Csf1, DESeq mean, 4 reps): 1349.7
- log2FoldChange Csf1 (gene Csf1, vs vehicle, 4 reps): 2.395
- MeanFenamidone Csrnp3 (gene Csrnp3, DESeq mean, 4 reps): 419.96
- log2FoldChange Csrnp3 (gene Csrnp3, vs vehicle, 4 reps): -1.31
- MeanFenamidone Ctnna1 (gene Ctnna1, DESeq mean, 4 reps): 850.825
- log2FoldChange Ctnna1 (gene Ctnna1, vs vehicle, 4 reps): 1.929
- MeanFenamidone Ctsd (gene Ctsd, DESeq mean, 4 reps): 3727.98
- log2FoldChange Ctsd (gene Ctsd, vs vehicle, 4 reps): 1.609
- MeanFenamidone Ctsl (gene Ctsl, DESeq mean, 4 reps): 1179.87
- log2FoldChange Ctsl (gene Ctsl, vs vehicle, 4 reps): 1.543
- MeanFenamidone Cyba (gene Cyba, DESeq mean, 4 reps): 37.6864
- log2FoldChange Cyba (gene Cyba, vs vehicle, 4 reps): 3.26
- MeanFenamidone Cyr61 (gene Cyr61, DESeq mean, 4 reps): 1421.12
- log2FoldChange Cyr61 (gene Cyr61, vs vehicle, 4 reps): 2.66
- MeanFenamidone D130043K22Rik (gene D130043K22Rik, DESeq mean, 4 reps): 33.8314
- log2FoldChange D130043K22Rik (gene D130043K22Rik, vs vehicle, 4 reps): -1.82
- MeanFenamidone Daam2 (gene Daam2, DESeq mean, 4 reps): 263.262
- log2FoldChange Daam2 (gene Daam2, vs vehicle, 4 reps): 1.9757
- MeanFenamidone (gene Darc): 104.469
- log2FoldChange (gene Darc): -1.472

Source: article PMC4821887, “Identification of chemicals that mimic transcriptional changes associated with autism, brain aging and neurodegeneration” (Nature Communications, 2016)
